Experimental data reported in patent publication US20190225644A1, “MRNA CAP ANALOGS AND METHODS OF MRNA CAPPING” (ModernaTX, Inc., priority 2015, published 2019).
Several values for one entry are separate records, joined by “and”; a condition that tells them apart may be missing. Identical values can stand only once. Like-named read-outs stand apart in the source and are kept apart here.

Columns and labels:
[1] = test system: HeLa Lysate; assay: Cell free translation assay, mCitrine mRNA carrying the cap analogs; assay type: biochemical; conditions: 5-methoxy uridine modRNA
Description: (§1) The in vitro translation assay was conducted with the HeLa 1-step coupled IVT kit (ThermoFisher Scientific, Waltham, Mass.) according to the manufacturer's instructions to assess performance of new cap analogs as free compounds or as an integral part of capped mRNA. Cap analogs with affinity to eIF4E protein may reduce protein synthesis rate in cell-free translation. Further, RNAs containing such cap analogs (“Cap-modRNA”) show different potency of protein synthesis in cell-free translation.
The modified RNAs (“modRNAs”) of eGFP and mCitrine-degron, harboring chemical modifications on either the CAP structures, selected ribose units and/or the bases, were diluted in sterile nuclease-free water to a final amount of 500 ng in 5 uL. This volume was added to 20 uL of freshly prepared HeLa Lysate. The in vitro translation reaction was done in a standard 96-well round bottom plate (Corning, Corning, N.Y.), covered with an self-adhesive fluorescence-compatible seal (BioRad, Hercules, Calif.) at 30° C. inside the plate reader Cytation 3 (BioTek, Winooski, Vt.).
The fluorescent signal per reaction increased over time and is considered proportional to the occurring protein synthesis. Each cell-free translation reaction was monitored for 120-180 min with the following settings: eGFP protein—ex. 485 nm, em. […] 545, gain 70 or 80. The height of the reading head was set to 1 mm above the plate and a reading speed of one per sample every 17 seconds. The results of modRNAs with various caps are illustrated in FIGS. 3A-3B.
(§2) Cell free translation assays were also conducted using modRNAs comprises 5-methoxy uridine, which replaces each uridine in the RNA sequence, except otherwise specified. The results are shown in FIGS. 5A-5B and 6A-6B, and Tables 12 and 13. Table 12 discloses the measured mCitrine levels after 3 hours of a cell-free translation assay.

[2] = test system: HeLa Lysate; assay: Cell free translation assay, hEPO mRNA carrying the cap analogs; assay type: biochemical; conditions: 5-methoxy uridine modRNA
Description: In FIG. 5A, “mod mRNA” refers to a modified mRNA comprising N1-methyl pseudouridine, which replaces each uridine in the RNA sequence. FIG. 5 B presents the results of a cell free translation assay using mRNAs carrying different cap analogs, normalized to capping and concentration of each capped mRNA (see also Table 13).
as §1, §2
Table 13 discloses the hEPO levels after 3 hours of a cell-free translation assay.

[3] = target: T7 RNA Polymerase (Escherichia phage T7, UniProt P00573); assay: Cotranscriptional capping of hEPO mRNA by in vitro transcription (capping fraction); assay type: biochemical; conditions: hEPO mRNA used in the in vivo assay
Description: The target mRNAs are prepared following IVT Reaction Protocol—Cotranscriptional capping described herein.
Ratio of A:U:C:G varies between 1:1:1:0.1 and 1:1:1:1, with the cap added in 10-fold excess to G. • 2. T7 RNA polymerase is added after other components except for water. • 3. Water is added for a total reaction volume of 100 uL. • 4. The mixture is mixed well and spun down in a benchtop centrifuge for 1 minute. • 5. The cocktail is incubated at 37 degrees for 4 hours. • 6. 2.5 uL of RNase free DNase I is added. • 7. The cocktail is incubated at 37° C. for 45 minutes.
As described in this Example, each of A, U, C, and G includes both unmodified and modified NTP. After the IVT reaction is complete, the mixture is cleaned using membrane purification (MegaClear or equivalent), and Oligo dT. Sample concentration is determined using a spectrophotometer, and degradation is quantitated using a bioanalyzer.

[4] = target: T1, eIF4E (Homo sapiens, UniProt P06730); assay: biochemical
Description: (§3) A sensor chip SA (GE Healthcare) is docked into a Biacore 3000 instrument.
(§4) Compound concentration series are injected over the immobilized protein serially in increasing concentration. Interaction models are fitted globally to the experimental traces, enabling determination of Kd or KD (binding affinity; unit: M) and possibly kon (on-rate, calculated from the association phase; unit: M^−1s^−1) and koff (off-rate, calculated from the dissociation phase; unit: s^−1).
(§5) A sensor chip (SAD5001 or SA) was docked into a Biacore 3000 instrument, washed with 50 mM NaOH, 1M NaCl. Protein eIF4E was diluted in running buffer (50 mM HEPES, 150 mM KCl, 10 mM MgCl2, 2 mM TCEP) to ˜1 μM. The diluted protein solution was injected for 300-600 seconds. Typical capture levels were 5000-6000 RU.
(§6) Test compounds were solubilized in ddH2O or DMSO to 10 mM. 100 μM stocks were prepared by 100-fold dilution in running buffer (50 mM HEPES, 150 mM KCl, 10 mM MgCl2). Assay was run with or without 1% DMSO.
(§7) Data were analyzed in GeneData. Curve fit was accepted or rejected by looking at the resulting sensorgrams and steady state fits.
(§8) Assay has been validated using running buffer with and without DMSO. […] Further, newly captured protein stabilizes slowly, leading to negative responses during the dissociation phase for compounds injected over newly captured protein.

[5] = target: T1, eIF4E; assay: Binding affinities to eIF4E using surface plasmon resonance (SPR)
Description: as §3, §4, §5, §6, §7, §8

[6] = test system: human primary hepatocytes; assay: Cell-based expression in human primary hepatocytes of mRNAs carrying the cap analogs; conditions: mRNA carrying the cap, 5-methoxy uridine; 008-7 Cap0-like, all other caps Cap1-like
[7] = test system: CD-1 mice; assay: In vivo expression assay, hEPO mRNA in MC3-based LNP; conditions: iv bolus 0.05 mg/kg, 6 h after injection, 008-7 Cap0-like, others Cap1-like
Description: mRNAs encoding hEPO were synthesized according to the method described in Example 2 above, co-transcriptionally incorporating cap analogs of the disclosure. […] A MC3-based lipid nanoparticle (LNP) formulation of the synthesized mRNA was produced, and was intravenously administered to CD-1 mice (n=3) at a bolus dose of 0.05 mg/kg. The level of hEPO was tested at 6 h, 24 h, or 48 h after injection.

[8] = target: T1, eIF4E
Description: as §3, §4, §5, §6, §7, §8

[9] = test system: HeLa Lysate; assay: Cap competition assay in kinetic cell free in vitro translation (free cap analogs); assay type: biochemical; conditions: free cap analog 0-100 uM against Cap1-tipped eGFP modRNA, fluorescence plateau
Description: as §1
For competition assays, the total volume of the cell-free translation reaction was increased to 27.8 uL by addition of either water or diluted free CAP analogs in water. The stock concentration of the free CAP analogs was 1 mM. With two-fold dilutions in water, the concentration was reduced sequentially. […] The CAP analogs used in this study were either commercial products serving as reference material (TriLink, San Diego, Calif.) or compounds disclosed herein. It is hypothesized that the small molecule cap analogs interfere with the assembly of the “closed loop” in a Kd-dependent fashion.
After the fluorescent signal in cell-free translation reaction reached a stable plateau, absolute values thereof were transferred to a statistical analysis program (GraphPad Software, La Jolla, Calif.) and curve fitting or IC50 calculations were derived with settings according to the instructions of the manufacturer.
The results from the cap competition assays are illustrated in FIGS. 1A-1C and 2A-2D. In this study, each of the modRNAs used comprises 1-methyl-pseudouridine, which replaces each uridine in the RNA sequence and 5-methyl cytidine, which replaces each cytidine in the RNA sequence. Further, Table 11 includes the IC50 values of certain compounds of the disclosure.

[10] = test system: CD1-derived primary hepatocytes; assay: Expression of mCitrine mRNA carrying the cap in primary hepatocytes (FIG. 9); assay type: cell-based; conditions: FIG. 9, reporter mCitrine
[11] = test system: Hep3B HCC-derived malignant cells; assay: Expression of mCitrine mRNA carrying the cap in Hep3B cells (FIG. 9); assay type: cell-based; conditions: FIG. 9, reporter mCitrine
Source text: FIG. 9 is a pair of graphs comparing the expression of mRNAs carrying different cap analogs in human primary hepatocytes to the expression in Hep3B cells (reporter: mCitrine).

[12] = residence time as listed in Table 12
[13] = residence time as listed in Table 13

Sequence of T7 RNA Polymerase (P00573 whole entry): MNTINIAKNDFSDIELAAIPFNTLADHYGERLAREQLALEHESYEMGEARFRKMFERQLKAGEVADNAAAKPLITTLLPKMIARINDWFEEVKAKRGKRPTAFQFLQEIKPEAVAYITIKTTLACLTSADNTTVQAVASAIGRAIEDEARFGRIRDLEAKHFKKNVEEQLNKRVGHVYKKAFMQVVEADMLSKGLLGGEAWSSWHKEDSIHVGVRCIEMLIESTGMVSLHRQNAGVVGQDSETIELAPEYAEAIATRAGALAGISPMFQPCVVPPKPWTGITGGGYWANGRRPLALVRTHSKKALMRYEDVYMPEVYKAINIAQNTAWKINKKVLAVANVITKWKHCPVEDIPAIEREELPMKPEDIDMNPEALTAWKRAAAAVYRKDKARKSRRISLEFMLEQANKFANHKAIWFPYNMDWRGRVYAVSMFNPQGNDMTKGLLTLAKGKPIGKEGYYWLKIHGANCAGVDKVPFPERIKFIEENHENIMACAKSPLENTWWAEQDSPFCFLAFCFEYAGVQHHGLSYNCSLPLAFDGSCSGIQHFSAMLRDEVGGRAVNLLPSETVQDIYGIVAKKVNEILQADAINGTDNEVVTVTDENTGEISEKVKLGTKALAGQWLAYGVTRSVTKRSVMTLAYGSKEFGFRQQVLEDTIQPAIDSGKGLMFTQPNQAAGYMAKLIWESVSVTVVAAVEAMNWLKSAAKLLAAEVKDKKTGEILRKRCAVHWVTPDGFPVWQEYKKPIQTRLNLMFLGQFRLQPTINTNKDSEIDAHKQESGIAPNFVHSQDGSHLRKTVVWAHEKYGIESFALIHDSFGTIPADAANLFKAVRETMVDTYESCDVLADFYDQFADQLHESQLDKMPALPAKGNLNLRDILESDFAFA
T1 sequence (P06730 32-217): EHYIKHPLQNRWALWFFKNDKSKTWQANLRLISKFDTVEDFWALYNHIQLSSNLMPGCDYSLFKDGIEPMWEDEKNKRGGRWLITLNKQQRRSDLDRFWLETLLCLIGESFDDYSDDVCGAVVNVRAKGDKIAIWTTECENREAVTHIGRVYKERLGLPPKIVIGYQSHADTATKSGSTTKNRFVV

With `CO[C@@H]1[C@H](O)[C@@H](COP(=O)(O)OP(=O)([S-])OP(=O)(O)OC[C@H]2O[C@@H](n3cnc4c(=O)[nH]c(N)nc43)[C@H](O)[C@@H]2O)O[C@H]1n1c[n+](C)c2c(=O)[nH]c(N)nc21` (single isomer, unassigned) [Compound 005-30 (D1)] the “Ave norm (mCitrine levels after 3 hours of a cell-free translation assay)” value [1] was 0.44 (D1);, the “CFT (norm to conc. & capping & cap1), hEPO levels after 3 hours of a cell-free translation assay” value (from here on “CFT … of a cell-free translation assay”) [2] was 0.79 (D1) and the “capping %/100” value [3] was 0.65 (D1) %/100. The Kd [4] was 700 nM, the “τ (s)” value [5, 12] was 15 (D1); s and the “τ (s)” value [5, 13] was 14.9 (D1) s.

`CO[C@@H]1[C@H](O)[C@@H](COP(=O)(O)OP(=O)([S-])OP(=O)(O)OC[C@H]2O[C@@H](n3cnc4c(=O)[nH]c(N)nc43)[C@H](O)[C@@H]2O)O[C@H]1n1c[n+](C)c2c(=O)[nH]c(N)nc21` (single isomer, unassigned) [Compound 005-30 (D2)] was tested, and the “Ave norm (mCitrine levels after 3 hours of a cell-free translation assay)” value [1] was 0.84 (D2), the “CFT … of a cell-free translation assay” value [2] was 1.66 (D2) and the “capping %/100” value [3] was 0.71 (D2) %/100. The Kd [4] was 1100 nM, the “τ (s)” value [5, 12] was 10 (D2) s and the “τ (s)” value [5, 13] was 10.4 (D2) s.

`CO[C@H]1[C@@H](O)[C@H](n2c[n+](C)c3c(=O)[nH]c(N)nc32)O[C@@H]1COP(=O)(O)OP(=O)(O)OP(=O)(O)OC[C@H]1O[C@@H](n2cnc3c(=O)[nH]c(N)nc32)[C@H](O)[C@@H]1O` [ARCA, m7(3′-Om)GpppG, reference compound] was tested, and the “CFT … of a cell-free translation assay” value [2] was 1.93, the “h-primHeps norm to Capping and Cap1” value [6] was 1.52 and the “in vivo hEPO normalized to capping and Cap1” value [7] was 0.70. For the same compound, the “capping %/100” value [3] was 0.86 %/100, the Kd [8] was 2000 to 3000 nM and the koff [8] was 1.67 s⁻¹. For the same compound, the “τ” value [5, 13] was 0.6 s.

For `CO[C@@H]1[C@H](O)[C@@H](COP(=O)(O)OP(=O)(O)OP(=O)(O)OC[C@H]2O[C@@H]([n+]3cn(C)c4c(=O)[nH]c(N)nc43)[C@H](O)[C@@H]2O)O[C@H]1n1cnc2c(=O)[nH]c(N)nc21` [Cap1, m7GpppG(2′-Om), reference compound], the “Ave norm (mCitrine levels after 3 hours of a cell-free translation assay)” value [1] was 0.30, the “CFT … of a cell-free translation assay” value [2] was 1.00 and the “h-primHeps norm to Capping and Cap1” value [6] was 1.00. The “in vivo hEPO normalized to capping and Cap1” value [7] was 1.00, the “capping %/100” value [3] was 1 %/100 and the Kd [8] was 3000 nM. For the same compound, the koff [8] was 0.77 s⁻¹, the “τ” value [5, 12] was 1.3 s and the “τ” value [5, 13] was 1.3 s.

With `BP(=O)(OP(=O)([O-])OC[C@H]1O[C@@H](n2c[n+](C)c3c(=O)[nH]c(N)nc32)[C@H](O)[C@@H]1O)OP(=O)([O-])OC[C@H]1O[C@@H](n2c[n+](C)c3c(=O)[nH]c(N)nc32)[C@H](O)[C@@H]1O` [Compound 005-4] the IC50 [9] was 5000 nM, the “Ave norm (mCitrine levels after 3 hours of a cell-free translation assay)” value [1] was 0.24 and the Kd [4] was 700 to 1000 nM and 1000 nM. The “τ” value [5] was 4.17 s and 4.2 s and the koff ([5]; read-out: koff (s^−1)) was 0.24 s⁻¹.

`C[n+]1cn([C@@H]2O[C@H](COP(=O)([O-])OP(=O)([O-])OP(=O)(O)OC[C@H]3O[C@@H](n4c[n+](C)c5c(=O)[nH]c(N)nc54)[C@H](O)[C@@H]3O)[C@@H](O)[C@H]2O)c2nc(N)[nH]c(=O)c21` [Compound 005-10] was tested, and the IC50 [9] was 14000 nM, the “CFT … of a cell-free translation assay” value [2] was 0.83 and the “capping %/100” value [3] was 0.91 %/100. For the same compound, the koff [8] was 0.26 s⁻¹, the Kd [4] was 2700 nM and 3000 nM and the “τ” value [5, 13] was 3.8 s.

With `COCCO[C@@H]1[C@H](O)[C@@H](COP(=O)(O)OP(=O)([O-])OP(=O)(O)OC[C@H]2O[C@@H](n3cnc4c(=O)[nH]c(N)nc43)[C@H](O)[C@@H]2O)O[C@H]1n1c[n+](CCOc2ccc(Cl)cc2)c2c(=O)[nH]c(N)nc21` [Compound 005-27] the “Ave norm (mCitrine levels after 3 hours of a cell-free translation assay)” value [1] was 1.50, the “CFT … of a cell-free translation assay” value [2] was 3.19 and the “capping %/100” value [3] was 0.84 %/100. For the same compound, the “expression of mRNA carrying the cap in primary hepatocytes” value [10] was “low”, the “expression of mRNA carrying the cap in Hep3B cells” value [11] was “high” and the koff [8] was 0.025 s⁻¹. The Kd [4] was 110 nM, the “τ” value [5, 12] was 40 s and the “τ” value [5, 13] was 40 s.

In the case of `COCCO[C@@H]1[C@H](O)[C@@H](COP(=O)(O)OP(=O)([S-])OP(=O)(O)OC[C@H]2O[C@@H](n3cnc4c(=O)[nH]c(N)nc43)[C@H](O)[C@@H]2O)O[C@H]1n1c[n+](CCOc2ccc(Cl)cc2)c2c(=O)[nH]c(N)nc21` (stereo partly drawn) [Compound 005-34], the “Ave norm (mCitrine levels after 3 hours of a cell-free translation assay)” value [1] is reported as 2.51, the “CFT … of a cell-free translation assay” value [2] is reported as 2.71 and the “capping %/100” value [3] is reported as 0.94 %/100. The koff [8] was 0.02 s⁻¹, the Kd [4] was 10 nM and the “τ” value [5, 12] was 50 s. For the same compound, the “τ” value [5, 13] was 50 s.

In the case of `Nc1nc2c(ncn2[C@@H]2O[C@H](COP(=O)(O)OP(=O)([O-])OP(=O)(O)OC[C@H]3O[C@@H](n4c[n+](CCOc5ccc(Cl)cc5)c5c(=O)[nH]c(N)nc54)[C@@H](O)[C@@H]3O)[C@@H](O)[C@H]2O)c(=O)[nH]1` [Compound 005-35], the “CFT … of a cell-free translation assay” value [2] is reported as 1.02, the “capping %/100” value [3] is reported as 1 %/100 and the “τ” value [5, 13] is reported as 9.1 s.

With `COc1ccc(CN2CC(COP(=O)([O-])OP(=O)(O)OP(=O)(O)OCC3OC(n4cnc5c(=O)[nH]c(N)nc54)C(O)C3O)OC(n3c[n+](C)c4c(=O)[nH]c(N)nc43)C2)cc1` (stereo not drawn) [Compound 006-26] the “Ave norm (mCitrine levels after 3 hours of a cell-free translation assay)” value [1] was 0.50 and the “τ” value [5, 12] was 3.3 s.

`CN(C)CCN1CC(COP(=O)(O)OP(=O)([O-])OP(=O)(O)OC[C@H]2O[C@@H](n3cnc4c(=O)[nH]c(N)nc43)[C@H](O)[C@@H]2O)OC(n2c[n+](C)c3c(=O)[nH]c(N)nc32)C1` (stereo partly drawn) [Compound 006-44] was tested, and the “Ave norm (mCitrine levels after 3 hours of a cell-free translation assay)” value [1] was 0.31 and the “τ” value [5, 12] was 0.8 s.

For `CN1CC(COP(=O)(O)OP(=O)([O-])OP(=O)(O)OC[C@H]2O[C@@H](n3cnc4c(=O)[nH]c(N)nc43)[C@H](O)[C@@H]2O)OC(n2c[n+](CCOc3ccc(Cl)cc3)c3c(=O)[nH]c(N)nc32)C1` (stereo partly drawn) [Compound 006-45], the “Ave norm (mCitrine levels after 3 hours of a cell-free translation assay)” value [1] was 0.74, the “CFT … of a cell-free translation assay” value [2] was 0.48 and the “capping %/100” value [3] was 0.95 %/100. For the same compound, the “τ” value [5, 12] was 11.6 s and the “τ” value [5, 13] was 11.6 s.

With `C[n+]1cn(C2CN(Cc3ccccc3)CC(COP(=O)(O)OP(=O)([S-])OP(=O)(O)OC[C@H]3O[C@@H](n4cnc5c(=O)[nH]c(N)nc54)[C@H](O)[C@@H]3O)O2)c2nc(N)[nH]c(=O)c21` (stereo partly drawn) [Compound 006-46] the “Ave norm (mCitrine levels after 3 hours of a cell-free translation assay)” value [1] was 0.77 and the “τ” value [5, 12] was 3.4 s.
